Structures can show the parent of a compound that is named as a salt.
system: ACHN cell line; experiment: drug screen of the SelleckChem kinase inhibitor library with and without 5 uM SU-329, Cell-Titer Glo after 5 days; assay type: cell-based; conditions: not given

Compound	log2fc
N#CC(=C(/N)Sc1ccccc1N)/C(C#N)=C(\N)Sc1ccccc1N [U0126-EtOH, U0126, reference compound]	−0.3988
CHIR-98014	3.928

same assay, conditions: kinase inhibitor at 200 nM with and without 5 uM SU329; ACHN cell line; 5 days; Cell-Titer Glo

Compound	log2fc
CC(C)(C)c1nc(-c2cccc(NS(=O)(=O)c3c(F)cccc3F)c2F)c(-c2ccnc(N)n2)s1 [Dabrafenib (GSK2118436), dabrafenib, reference compound]	−0.314
CCc1cnn2c(NCc3ccc[n+]([O-])c3)cc(N3CCCC[C@H]3CCO)nc12 [Dinaciclib (SCH727965)]	1.402
Cc1cnc(-c2cnc(NCCNc3ccc(C#N)cn3)nc2-c2ccc(Cl)cc2Cl)[nH]1.Cl [CHIR-99021 (CT99021) HCl]	0.9577
COc1cc(N2CCC(N(C)C)CC2)ccc1Nc1ncc(Cl)c(Nc2ccccc2P(C)(C)=O)n1 [ALK-IN-1]	−0.4692
O=C1Nc2ccccc2/C1=C1/Nc2ccccc2C1=O [Indirubin]	−1.247
COc1ccc2cc(-c3nc(-c4ccc([S+](C)[O-])cc4)[nH]c3-c3ccncc3)ccc2c1 (stereo not shown) [Tie2 kinase inhibitor]	−0.08697
CCn1c(-c2nonc2N)nc2c(C#CC(C)(C)O)ncc(OC[C@H]3CCCNC3)c21 [GSK690693]	−0.5999
Cc1cc(Nc2cc(CN3CCOCC3)c3nc(C)c(Cc4ccc(Cl)cc4F)n3n2)n[nH]1 [Gandotinib (LY2784544)]	1.04
CCc1nc(-c2cccc(C)c2)c(-c2ccnc(NC(=O)c3ccccc3)c2)s1 [TAK-715]	0.02439
CS(=O)(=O)N1CCN(Cc2cc3nc(-c4cccc5[nH]ncc45)nc(N4CCOCC4)c3s2)CC1 [Pictilisib (GDC-0941)]	−1.17
C=CC(=O)Nc1cccc(Nc2nc(Nc3ccc(NC4CN(CCF)C4)cc3OC)ncc2C(F)(F)F)c1 [CNX-2006]	0.1218
O=c1[nH]c2ccc(Cl)cc2c(N[C@@H]2CN3CCC2CC3)c1-c1nc2ccccc2[nH]1 [CHIR-124]	1.257
CC[C@@H]1C(=O)N(C)c2cnc(Nc3ccc(C(=O)N[C@H]4CC[C@H](N5CCN(CC6CC6)CC5)CC4)cc3OC)nc2N1C(C)C [Volasertib (BI 6727)]	0.6372
CNC(=O)c1ccccc1Nc1nc(Nc2ccc(N3CCOCC3)cc2OC)ncc1Cl [TAE226 (NVP-TAE226)]	−0.08897
NC(=O)c1ccc(N(C(N)=O)c2c(F)cccc2F)nc1-c1ccc(F)cc1F [VX-702]	−0.1168
CC(C)(C)n1nc(-c2ccc(Cl)cc2)c2c(N)ncnc21 [PP2]	−0.01088
Cc1cc(Nc2nc(N[C@@H](C)c3ccc(F)cc3)c(C#N)cc2F)n[nH]1 [AZ 960]	0.979
Cn1cnc2c(F)c(Nc3ccc(Br)cc3F)c(C(=O)NOCCO)cc21 [Binimetinib (MEK162, ARRY-162, ARRY-438)]	0.5434
S-Ruxolitinib (INCB018424)	−0.1855
Nc1cccc(-c2cc3c(Oc4cccc(O)c4)ncnc3[nH]2)c1 [TWS119]	0.52
NC(=O)Nc1cc(-c2cccc(F)c2)sc1C(=O)N[C@H]1CCCNC1 [AZD7762]	0.8568
C=CC(=O)Nc1ccc2ncnc(Nc3ccc(OCc4cccc(F)c4)c(Cl)c3)c2c1 [AST-1306, reference compound]	0.0584
N#CC[C@H](C1CCCC1)n1cc(-c2ncnc3[nH]ccc23)cn1 [Ruxolitinib (INCB018424)]	−0.1253

Compound	log2fc
CC1(C)CNc2cc(NC(=O)c3cccnc3NCc3ccncc3)ccc21.O=P(O)(O)O.O=P(O)(O)O [Motesanib Diphosphate (AMG-706)]	−0.1118
O=C(Nc1c[nH]nc1-c1nc2ccc(CN3CCOCC3)cc2[nH]1)NC1CC1 [AT9283]	2.163
O=c1c(O)c(-c2ccc(O)c(O)c2)oc2cc(O)cc(O)c12 [Quercetin]	−0.449
CCOc1cc2ncc(C#N)c(Nc3ccc(F)c(Cl)c3)c2cc1NC(=O)/C=C/CN(C)C [Pelitinib (EKB-569)]	0.96
COc1ccc(CNC(=O)Nc2ncc([N+](=O)[O-])s2)cc1 [AR-A014418]	0.1293
O=C1NC(=O)[C@@H](c2cn3c4c(cccc24)CCC3)[C@@H]1c1c[nH]c2ccccc12 [Tivantinib (ARQ 197)]	0.2709
Cn1cc(C2=C(c3ccc(Cl)cc3Cl)C(=O)NC2=O)c2ccccc21 [SB216763]	0.4708
Fc1cc(-c2cccc3ncc(-c4cnn(C5CCNCC5)c4)nc23)cc(F)c1CN1CCOCC1 [NVP-BSK805 2HCl]	−0.09499
Cc1cnc(NC(=O)Nc2cc(Br)c(C)cc2OC[C@@H]2CNCCO2)cn1 [LY2603618]	−0.1739
COc1cc2nccc(Oc3ccc(NC(=O)NC4CC4)c(Cl)c3)c2cc1C(N)=O [Lenvatinib (E7080)]	−0.314
CC(C)n1nc(-c2cc3cc(O)ccc3[nH]2)c2c(N)ncnc21 [Torkinib (PP242)]	−0.3157
NC1(Cc2ccc(Cl)cc2)CCN(c2ncnc3[nH]ccc23)CC1 [CCT128930]	−0.2364
CCN(CC)CCNC(=O)c1c(C)[nH]c(/C=C2\C(=O)Nc3ccc(F)cc32)c1C [Sunitinib Malate, sunitinib, reference compound]	−0.1249
CN(C[C@@H]1COCCO1)S(=O)(=O)Nc1ccc2ccc3ncc(-c4cnn(C)c4)cc3c(=O)c2c1 [MK-2461]	0.09192
CC(C)n1nc(-c2ccc3oc(N)nc3c2)c2c(N)ncnc21 [INK 128 (MLN0128)]	−0.2018
PF-477736	−2.035
Cn1cnc2c(F)c(Nc3ccc(Br)cc3Cl)c(C(=O)NOCCO)cc21 [Selumetinib (AZD6244), selumetinib, reference compound]	0.357
CCCS(=O)(=O)Nc1ccc(F)c(C(=O)c2c[nH]c3ncc(-c4ccc(Cl)cc4)cc23)c1F [Vemurafenib (PLX4032, RG7204), vemurafenib, reference compound]	0.009154
CC(C)(C)c1cc(C=C(C#N)C#N)cc(C(C)(C)C)c1O [Tyrphostin 9]	−0.5358
Cl.Cl.O=S(=O)(NCCNC/C=C/c1ccc(Br)cc1)c1cccc2cnccc12 [H 89 2HCl]	−0.01404
COc1ncc(-c2ccc3nccc(-c4ccnnc4)c3c2)cc1NS(=O)(=O)c1ccc(F)cc1F [Omipalisib (GSK2126458, GSK458)]	0.5342
CCN1CCN(Cc2ccc(Nc3ncc(F)c(-c4cc(F)c5nc(C)n(C(C)C)c5c4)n3)nc2)CC1 [abemaciclib (LY2835219)]	0.1618
CNc1nc(-c2ccc3c(N)n[nH]c3c2)cc(N2C[C@@H](C(=O)NC3CCCCC3)CC[C@H]2C)n1 [GSK2334470]	−1.111

Compound	log2fc
O=C1NC(=O)C(c2cnc3ccccn23)=C1c1cn2c3c(cc(F)cc13)CN(C(=O)N1CCCCC1)CC2 [LY2090314]	1.91
SNS-314 Mesylate	0.4469
CCc1cccc(CC)c1NC(=O)N1Cc2[nH]nc(NC(=O)c3ccc(N4CCN(C)CC4)cc3)c2C1 [PHA-680632]	−0.4048
C[C@H](Nc1ncnc2nc[nH]c12)c1cc2cccc(Cl)c2c(=O)n1-c1ccccc1 [Duvelisib (IPI-145, INK1197)]	−0.2128
COc1cc2c(Oc3ccc4[nH]c(C)cc4c3F)ncnc2cc1OCCCN1CCCC1 [Cediranib (AZD2171)]	0.01224
CC(C)(O)CC(=O)NCCn1ccc2ncnc(Nc3ccc(Oc4cccc(C(F)(F)F)c4)c(Cl)c3)c21 [TAK-285, reference compound]	0.3876
COc1cc2ncnc(Nc3ccc(F)c(Cl)c3)c2cc1OCCCN1CCOCC1 [Gefitinib (ZD1839)]	0.4905
COc1cc(Nc2ncc3c(n2)-c2ccc(Cl)cc2C(c2c(F)cccc2OC)=NC3)ccc1C(=O)O [Alisertib (MLN8237)]	0.7052
CO[C@H]1C[C@@H]2CC[C@@H](C)[C@@](O)(O2)C(=O)C(=O)N2CCCC[C@H]2C(=O)O[C@H]([C@H](C)C[C@@H]2CC[C@@H](OP(C)(C)=O)[C@H](OC)C2)CC(=O)[C@H](C)/C=C(\C)[C@@H](O)[C@@H](OC)C(=O)[C@H](C)C[C@H](C)/C=C/C=C/C=C/1C [Ridaforolimus (Deforolimus, MK-8669)]	−1.384
CN1CCC(COc2cnc(-c3cccc(Cn4nc(-c5cccc(C#N)c5)ccc4=O)c3)nc2)CC1 [Tepotinib (EMD 1214063)]	0.04059
CCN1CCN(Cc2ccc(C(=O)Nc3ccc(C)c(Oc4ccc5c(c4)CC(=O)N5)c3)cc2C(F)(F)F)CC1 [DDR1-IN-1]	−0.4228
COc1cc(N2CCC(N)CC2)ccc1Nc1ncc(Cl)c(-c2c[nH]c3ccccc23)n1 [AZD3463]	−0.06328
O=C(NC(NC(=S)Nc1ccc(F)c([N+](=O)[O-])c1)C(Cl)(Cl)Cl)C(c1ccccc1)c1ccccc1 (stereo not shown) [CGK 733]	0.1923
CN1CC[C@H](c2c(O)cc(O)c3c(=O)cc(-c4ccccc4Cl)oc23)[C@H](O)C1 [Flavopiridol HCl]	1.693
CN1CCN(C2CCN(C(=O)Nc3cc(Oc4ccc(NC(=O)C5(C(=O)Nc6ccc(F)cc6)CC5)c(F)c4)ccn3)CC2)CC1 [Golvatinib (E7050)]	−0.1341
COc1cc2ncnc(Nc3cccc(Cl)c3)c2cc1OC [AG-1478 (Tyrphostin AG-1478), AG-1478, reference compound]	0.2903
c1cncc(CN2CCC(n3ncc4c(N5CCOCC5)nc(-c5ccc6[nH]ccc6c5)nc43)CC2)c1 [WAY-600]	−1.322
CS(=O)(=O)CCNCc1ccc(-c2ccc3ncnc(Nc4ccc(OCc5cccc(F)c5)c(Cl)c4)c3c2)o1 [Lapatinib (GW-572016) Ditosylate, lapatinib, reference compound]	0.212
Nc1cc(C(F)(F)F)c(-c2cc(N3CCOCC3)nc(N3CCOCC3)n2)cn1 [Buparlisib (BKM120, NVP-BKM120)]	−1.183
C[C@@H](Oc1cc(-n2cnc3ccc(CN4CCN(C)CC4)cc32)sc1C(N)=O)c1ccccc1C(F)(F)F [GSK461364]	0.9925
Cl.O=S(=O)(c1cccc2cnccc12)N1CCCNCC1 [Fasudil (HA-1077) HCl]	0.1457
Cc1ccc(C(=O)Nc2cccc(C(F)(F)F)c2)cc1Nc1nc(-c2cccnc2)nc2c1cnn2C [NVP-BHG712]	0.02396

Source: patent US12195490B2, “STRAD-binding agents and uses thereof” (The Regents of the University of California, priority 2020, dated 2025)
